Data set [1] concerns the target T1, FOXP3/Runx1 heterodimerization (Homo sapiens, UniProt Q9BZS1).
T1 construct: made in house; host or cells: E. coli BL21 (DE3)
T1 sequence (Q9BZS1 1-431): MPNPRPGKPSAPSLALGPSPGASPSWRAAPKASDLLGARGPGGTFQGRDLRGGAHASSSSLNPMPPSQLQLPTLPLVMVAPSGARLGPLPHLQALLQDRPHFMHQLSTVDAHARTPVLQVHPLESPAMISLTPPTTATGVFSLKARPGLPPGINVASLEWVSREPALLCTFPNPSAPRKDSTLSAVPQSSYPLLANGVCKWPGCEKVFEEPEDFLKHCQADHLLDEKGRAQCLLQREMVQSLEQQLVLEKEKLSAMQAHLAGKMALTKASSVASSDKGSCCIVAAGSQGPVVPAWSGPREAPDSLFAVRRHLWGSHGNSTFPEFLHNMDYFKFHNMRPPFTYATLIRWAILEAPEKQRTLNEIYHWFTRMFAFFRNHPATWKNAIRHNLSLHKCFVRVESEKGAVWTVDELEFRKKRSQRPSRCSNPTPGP
Briefly: FOXP3/Runx1 heterodimerization inhibition (Alphascreen). The format is biochemical. The note with it: peptide 100 μM. An excerpt: (§1) Plasmid pET20b FOXP3-His was generated to produce the human FOXP3 tagged with 6 histidines at the C terminus of the protein. Briefly, plasmid pDEST15-FOXP3 (provided by Dr. Casal, Madrid, Spain) was used as template to amplify FOXP3 by PCR using the primers Upper FOXP3 Ndel catatgcccaaccccaggc (SEQ ID NO: 55) and Lower FOXP3 […] (SEQ ID NO: 56). The resulting fragment was subcloned in pET20b at Ndel and NotI sites. pET45b His-Runx1 was obtained by PCR of activated human CD4 T cells obtained from healthy volunteers (after the signature of an informed consent) using the primers Upper Runx1 atgcgtatccccgtagatg (SEQ ID NO: 57) and Lower Runx1 […] (SEQ ID NO: 58) and the fragment was cloned in pcDNA3.1. Then, pET45b and pcDNA3.1-Runx1 were digested with BamHI and NotI and ligated to obtain pET45b-Runx1. Plasmids were used to transform BL21 cells (DE3; Novagen, Schwalbach, Germany) for the expression of the recombinant protein. The transformed BL21 cells were grown in LB medium at 37° C. (1 liter of final culture medium) (with ampicilin 0.1 mg/ml). Once the OD of the culture was between 0.5 and 1.0, IPTG (0.4 mM, final concentration) was added. Bacteria were then cultured overnight in agitation and centrifuged for 10 min at 8000 rpm. Cell pellet was then resuspended in 4 ml Tris-HCl 0.1 M and frozen at −80° C. Cell pellet was then thawed and incubated with lisozyme (25 KU) and a protease inhibitor cocktail for 15 min at 30° C. before cell lysis induced with a French-press. The resultant pool was then centrifuged during 20 min at 11.000 rpm). The recombinant protein was purified from the soluble fraction of French-press cell extracts by affinity chromatography (Histrap, Pharmacia) following manufacturer's instructions and using an FPLC platform (AKTA, Pharmacia). Plasmid pDEST15-FOXP3 encoding the fusion protein GST-FOXP3 (GST fused to the isoform A from human FOXP3 gene), was transformed into BL21 cells for the expression of the recombinant protein. GST-FOXP3 protein was purified from the soluble fraction of cell extracts obtained, as described above, by affinity chromatography (GSTrap; Amersham, Piscataway, N.J.) using a fast protein liquid chromatography platform (AKTA; Amersham) following manufacturer's instructions. The eluted proteins were desalted using Hitrap desalting columns (Pharmacia) and analyzed by SDS-PAGE using Coomassie blue (Bio-Safe Coomassie reagent; Bio-Rad, Hercules, Calif.) and by Western blot.
It has been described that dimerization of FOXP3 is required for its function as a transcriptional regulator. Moreover, interaction between FOXP3 and the transcription factor Runx1, is crucially required for normal hematopoiesis including thymic T-cell development, but also for Treg suppressor activity (Reviewed in Lozano et al, Front Oncol. 2013, 3:294). Both activities are mediated by the intermediate region of Foxp3, which is the area of interaction between P60 and Foxp3. Thus, we studied the effect of P60 and their mutants on the FOXP3/Runx1 heterodimerization, as well as FOXP3/FOXP3 homodimerization by Alphascreen technology according to the manufacturer's instructions (Perkin Elmer, Benelux). AlphaScreen™ is a bead-based technology that is designed to measure the proximity of donor and acceptor beads conjugated to biomolecules of interest.
To measure Foxp3-Runx1 interactions, Foxp3-GST and […] proteins were used.
Recombinant Runx1 expressed in E. Coli with a hexa-histidine tag (obtained as disclosed in section (1) above) was captured by nickel chelate acceptor beads following manufacturer's instructions, whereas the recombinant FOXP3 expressed with a GST tag was captured by glutathione donor beads (Perkin Elmer) following manufacturer's instructions. His-tagged Runx1 (46 nM final concentration) was incubated with 100 nM GST-FOXP3 and the peptides to be tested (added at different concentrations from 1 to 100 μM) for 1 h at room temperature. […]

In data set [2] the target is T2, human FOXP3 (FOXP3-6His) (Homo sapiens, UniProt Q9BZS1).
T2 construct: 6xHis (C); made in house; host or cells: E. coli BL21 (DE3)
T2 sequence (Q9BZS1 1-431): T1 sequence (Q9BZS1 1-431)
Put plainly: Peptide binding to FOXP3 by surface plasmon resonance (SPR). The note with it: peptides 1-20 μM; ratio to p60 (SEQ ID NO: 1).
From the text: as §1
Screening of peptide binding to FOXP3 was performed by surface plasmon resonance (SPR) using ProteOn XPR36 (Bio-Rad, Hercules Calif., USA) optical biosensor. Recombinant protein FOXP3-6His was produced and purified from E. coli as disclosed in previous section and was immobilized covalently onto a GLM sensor chip (176-5012, Bio-Rad) using sulfo-NHS and EDC (Bio-Rad) coupling reagents and the manufacturer's instructions. After protein immobilization, chip surface was treated with ethanolamine to deactivate the excess of reactive esters.
Individual solutions of the peptides to be tested (1-20 μM) were injected by triplicate in running buffer (Phosphate buffered saline, 0.005% (v/v) Tween 20, pH 7.4) at a flow of 30 μl/min. The interspot signal (obtained in the chip surface not immobilized with protein) was used as reference. The results are summarized in Table 6 below as the ratio Peptide of the invention/p60.
(In general: In SPR one partner is held on a chip, and binding of the other changes the refractive index at the surface.)

The nature of data set [3]: Human liver microsomal stability. Format: in vitro ADME. The note with it: for remaining at 20 min, 1 μM: read-out: % Remaining after 20 min; for remaining at 1 h, 1 μM: 60 min, read-out: % Remaining after 60 min. The protocol:
(§2) The data collected were analyzed to calculate a half-life (t1/2, min) for tested peptides at a final concentration of 1 μM. Briefly, 5 μL of stock solution of tested peptide (10 mM) were diluted in 495 μL of 1:1 Methanol/Water (final concentration of 100 μM, 50% MeOH). Then, 50 μL of this intermediate solution were diluted in 450 μL of 100 mM potassium phosphate buffer to a concentration of 10 μM (working solution, 5% MeOH). The NADPH regenerating system contains β-Nicotinamide adenine dinucleotide phosphate (Sigma, Cat. # N0505), Isocitric acid (Sigma, Cat. #11252) and Isocitric dehydrogenase (Sigma, Cat. #12002) at a final concentration of 1 unit/mL at incubation.
(§3) Human liver microsomes were obtained from BD Gentest (Cat. #452117) and mouse liver microsomes from Xenotech (Cat. # M1000), to a final concentration of 0.7 mg protein/mL. A volume of 10 μL of peptide solution and 80 μL of microsome solution were added to a 96-well plate and incubated for 10 min at 37° C. The reaction was started by the addition of 10 μL of NADPH regenerating system and stopped by the addition of 300 μL of stop solution (ACN at 4° C., including 100 ng/mL Tolbutamide and 100 ng/mL of Labetalol as internal standard) at different incubation times (0, 5, 10, 20, 30 and 60 min). Concentrations of test compound were quantified by LC-MS/MS methodologies (Shimadzu LC 20-AD/API4000) using peak area ratio of analyte/internal standard and the percent loss of parent compound was calculated under each time point to determine the half-life.
(In general: Microsomes from liver hold many membrane-bound enzymes, among them those of drug oxidation.)

The nature of data set [4]: Mouse liver microsomal stability. The format is in vitro ADME. The note with it: mouse liver microsomes; for remaining at 20 min, 1 μM: read-out: % Remaining after 20 min; for remaining at 1 h, 1 μM: 60 min, read-out: % Remaining after 60 min; for half-life: peptide 1 μM. The method, then:
as §2, §3

The mark [5] stands for this setting: human liver microsomes, peptide 1 μM, read-out: t1/2.

As usually defined, the share remaining is what is left of the initial amount, in per cent.

Where a SMILES comes first, the peptide text is derived from it. [ ]: non-standard residue; d: D form.

As for 15 (RDAQSFRKMWPFFAM) [compound 15], the “Foxp3-Runx1 Inhibition % inhibition (100 μM)” value in data set [1] is on record as 55.6%. The “Binding to Foxp3 Ratio binding Peptide/p60 (fold change)” value in data set [2] amounted to 1.1 fold change.
For the molecule `CSCC[C@@H]1NC(=O)[C@H](C)NC(=O)[C@H](Cc2ccccc2)NC(=O)[C@H](Cc2ccccc2)NC(=O)[C@@H]2CCCN2C(=O)[C@H](Cc2c[nH]c3ccccc23)NC(=O)[C@H](CCSC)NC(=O)[C@H](CCCCN)NC(=O)[C@H](CCCNC(=N)N)NC(=O)[C@H](Cc2ccccc2)NC(=O)[C@H](C)NC(=O)[C@H](CCC(N)=O)NC(=O)[C@H](Cc2ccccc2)NC(=O)[C@@H](C)NC(=O)[C@H](CCCNC(=N)N)NC1=O` [compound 51] (cyclo(R[dA]FQAFRKMWPFFAM)), in data set [3] (human liver microsomes), the share remaining at 20 min, 1 μM came to 48.7% and the share remaining at 1 h, 1 μM was 46.1%. In addition, the half-life in data set [3] (setting [5]) worked out at 61.7 min. For the same molecule, in data set [4], the fraction remaining at 20 min, 1 μM was 62.7%; the amount remaining at 1 h, 1 μM amounted to 47.7%; the half-life was 63.8 min.
In the case of `CSCC[C@@H]1NC(=O)[C@H](C)NC(=O)[C@H](Cc2ccccc2)NC(=O)[C@H](Cc2ccccc2)NC(=O)[C@@H]2CCCN2C(=O)[C@H](Cc2c[nH]c3ccccc23)NC(=O)[C@H](CCSC)NC(=O)[C@H](CCCCN)NC(=O)[C@H](CCCNC(=N)N)NC(=O)[C@H](Cc2ccccc2)NC(=O)[C@H](C)NC(=O)[C@H](CCC(N)=O)NC(=O)[C@H](Cc2ccccc2)NC(=O)[C@@H](C)NC(=O)[C@H](CCCNC(=N)N)NCCCNC1=O` [compound 52], in data set [3] (human liver microsomes), the share remaining at 20 min, 1 μM stood at 76.9% and the share remaining at 1 h, 1 μM is 40.1%. The half-life in data set [3] (setting [5]) amounted to 41.4 min. In addition, in data set [4], the share remaining at 20 min, 1 μM amounted to 98.9%; the amount remaining at 1 h, 1 μM was found to be 48%; the half-life was 46.9 min.
Take `CSCC[C@@H]1NC(=O)[C@H](C)NC(=O)[C@H](Cc2ccccc2)NC(=O)[C@H](Cc2ccccc2)NC(=O)[C@@H]2CCCN2C(=O)[C@H](Cc2c[nH]c3ccccc23)NC(=O)[C@H](CCSC)NC(=O)[C@H](CCCCN)NC(=O)[C@H](CCCNC(=N)N)NC(=O)[C@H](Cc2ccccc2)NC(=O)[C@H](C)NC(=O)[C@H](CCC(N)=O)NC(=O)[C@H](Cc2ccccc2)NC(=O)[C@@H](C)NC(=O)[C@H](CCCNC(=N)N)NCCNC(=O)CNC1=O` [compound 53]: in data set [3] (human liver microsomes), the share remaining at 20 min, 1 μM was determined as 32.9% and the share remaining at 1 h, 1 μM worked out at 2.8%. Further, the half-life in data set [3] (human, microsomes) was 11.1 min. Further, in data set [4], the fraction remaining at 20 min, 1 μM turned out to be 57%; the share remaining at 1 h, 1 μM worked out at 3.7%; the half-life was found to be 12.3 min.
Consider `CSCC[C@@H]1NC(=O)[C@H](C)NC(=O)[C@H](Cc2ccccc2)NC(=O)[C@H](Cc2ccccc2)NC(=O)[C@@H]2CCCN2C(=O)[C@H](Cc2c[nH]c3ccccc23)NC(=O)[C@H](CCSC)NC(=O)[C@H](CCCCN)NC(=O)[C@H](CCCNC(=N)N)NC(=O)[C@H](Cc2ccccc2)NC(=O)[C@H](C)NC(=O)[C@H](CCC(N)=O)NC(=O)[C@H](Cc2ccccc2)NC(=O)[C@@H](C)NC(=O)[C@H](CCCNC(=N)N)NCCOCCNC1=O` [compound 54], for which the fraction remaining at 20 min, 1 μM in data set [3] (human liver microsomes) was determined as 55.7%; in data set [4], 97.3%. In addition, the values for the fraction remaining at 1 h, 1 μM in data set [3] (human liver microsomes) and in data set [4] were 11% and 30.1%, respectively. Further, the figures for the half-life in data set [3] (setting [5]) and in data set [4] were 18.4 min and 30.9 min, respectively.

Values taken from patent publication US10654896B2, “FoxP3-binding peptides and uses thereof” (FUNDACIÓN PARA LA INVESTIGACIÓN MÉDICA APLICADA, priority 2016, dated 2020).
